# Patent US8470352B2, “Magnesium compositions and uses thereof for metabolic disorders” (Magceutics, Inc., priority 2007, dated 2013)
# Experiments:
# [1] = Magnesium absorption rate in rats (urine and feces magnesium by ICP-AES, linear regression); conditions: Examples 5 and 6, gluconate in skim milk or 5 weight percent lactose water, chloride and threonate in water; for magnesium absorption rate at higher dosage: high magnesium dosage
# Procedure: Fifty 3-month old, male Sprague Dawley (SD) rats were divided into five groups of ten rats. Rats of this age and older are considered adult. Each of the rats was placed in a separate metabolic cage equipped with urine- and feces-collecting wells. All of the rats were maintained in a temperature-controlled room (22° C. to 25° C.) with a dark period from 08:00 pm to 08:00 am daily. From day 1 through day 3, each rat was fed daily 15 g of magnesium-free food and de-ionized water. […] The medium was skim milk for Composition 1 and Group 1, milk prepared from powdered milk, by diluting the powdered milk with water to obtain a composition like that of skim milk, for Composition 2 and Group 2, 1% milk cream in water for Composition 3 and Group 3, water comprising 5 weight percent lactose for Composition 4 and Group 4, and water for the Control Composition and Control Group. […] From day 11 through day 12, each rat was fed daily 15 g of magnesium-free food and de-ionized water.
# From day 4 through day 10, urine from each rat was collected daily. The collected urine from each rat was then pooled together and the total volume of the pooled urine from each rat was recorded. The pooled urine from each rat, in an amount of […], was analyzed for magnesium content using an inductively coupled plasma-atomic emission spectrometer (ICP-AES). From day 5 to day 11, feces from each rat were collected daily. The collected feces from each rat were pooled together and the pooled feces were weighed and homogenized. The pooled feces from each rat, in an amount of 0.5 g, were analyzed for magnesium content using an ICP-AES.
# A formula was used to calculate a magnesium absorption rate for each rat. The formula used was Y=AX−B, wherein X was the average total daily magnesium intake, Y was the average net daily amount of magnesium absorbed, as calculated by X minus the average daily amount of magnesium excreted from feces, B was the average daily amount of magnesium excreted from feces when the magnesium intake was zero, and the slope A represented the magnesium absorption rate. […]
# [2] = system: rats (young, aging); experiment: Novel object recognition test in rats; format: in vivo, Sprague-Dawley rats
# Procedure: In this example, the effect of magnesium supplementation on recognition memory was tested. Three groups of rats were used in these experiments: 1) young rats (three months old); aging rats (12-14 months old), and; 3) magnesium-treated aging rats (12-14 months old, diet supplemented with 6 mg/kg MgCl2 from 8 months of age). We used experimentally naive, female, Sprague-Dawley young […], aging (12-14 month old) and […] rats (Charles River) at the beginning of the behavior experiments. They were housed two per cage with continuous access to food and water under a 12:12 light-dark cycle, with light onset at 8:00 a.m. […] All experiments involving animals were approved by the Massachusetts Institute of Technology's and Tsinghua University Committees on Animal Care.
# The three groups of rats were tested for recognition memory using an object recognition test with a single exposure to the object during training. The task is based on the natural tendency of rodents to explore new objects and tests the animals' memory capacity for distinguishing novel versus familiar objects.
# Briefly, the rats were first individually habituated to the personnel and then to open-field arena during 2 weeks. […] The retention intervals were 10 min and 24 hours. Objects were cleaned thoroughly between trials with 20% ethanol solution to ensure the absence of olfactory cues. The particular objects for a given trial were randomly determined, but each object was used for only one trial per rat. Memory of the familiar object is associated with increased exploration of the new object and an exploration index (% correct) is calculated as new object inspection time/30.
# In this example, the effect of magnesium supplementation on memory consolidation was studied. […]
# Briefly, the rats were first individually habituated to the personnel and then to open-field arena during 2 weeks. […] The particular objects for a given trial were randomly determined, but each object was used for only one trial per rat. […]
# [3] = system: rats (young, aging, aged); conditions: p<0.05
# Procedure: Twenty 2-month old, male Sprague Dawley (SD) rats were housed in a temperature-controlled room (22° C. to 25° C.) with a dark period from 08:00 pm to 08:00 am daily. […] Over 7 days before the training and trial period began, each rat was handled and habituated to the maze and to Kellogg's Froot Loop cereal.
# Each rat underwent a test of one trial, followed by an interval of 10-minutes, followed by another trial, and so on, for a total of 6 trials in one day. In each trial, each rat went through a sample run in the maze, followed by an interval of 15 seconds, followed by a choice run in the maze. […]
# On the first day (designated day 0) of the feeding of the two groups, as just described, each rat underwent a preliminary test of one trial, followed by an interval of 10 minutes, followed by another trial, and so on, for a total of 4 trials in one day. […] In this preliminary test, the choice accuracy level, or ratio of correct choices made, co, to the number of number of trials in the test, no, was determined for each rat. […]
# Three groups of animals (young, aging, and magnesium-treated aging rats) were used. […] Spatial working memory was assessed using a T-maze non-matching-to-place task. […] Spatial working memory was first assessed on an elevated T-maze. […]
# [4] = in vivo; cited from earlier work
# [5] = system: young (9-month old) and aged (25-month old) rats; conditions: food containing 2% magnesium oxide for 8 days; gain transient; cited from earlier work
# [6] = system: diabetic patients; conditions: nearly 1 g of magnesium daily for 1 month; cited from earlier work
# [7] = system: mice genetically altered to present symptoms of Alzheimer's disease (AD); experiment: Modified Morris water maze test in AD mice; format: in vivo; conditions: AD mice aged 13 months; FIG. 16 panels A and B
# Procedure: Another group, the control group, of 10 mice that were genetically altered to present symptoms of AD were fed a Control Diet, a diet of normal solid food and water, for 30 days.
# The pool used was a pool of water in a circular metal tank (150 cm in diameter and 50 cm in depth) having a water height of 30 cm and a water temperature that was maintained at ˜22° C. The pool was placed in a moderately lit area and surrounded by a black curtain. An acrylic platform (15 cm in diameter) was placed 2 cm below the surface of the water in the middle of one quadrant of the pool, equidistant from the center and the edge of the pool. Outside the pool, a cue was placed so as to be visible to a mouse in the maze, allowing a mouse to use it as a landmark for spatial orientation. The cue remained unchanged throughout the test period.
# On the first day of the training and testing period, the water in the pool was transparent, such that the platform was visible. Each mouse was trained to swim towards the platform and to stand on the platform so as not to be submerged in the pool. […] The amount of time the mouse took to find the platform, referred to as “escape latency,” was recorded for each trial.
# On the second day of the training and testing period, a small quantity of milk was added to the water in the pool, such that the pool was opaque and the platform was no longer visible. […]
molecule,measurement,setting,value
[Cl-].[Cl-].[Mg+2] [magnesium chloride],magnesium absorption rate at higher dosage,[1],less desirable
same,magnesium absorption rate at relatively low dosage,[1]; low magnesium dosage,"suitable, but lower"
same,"novel object exploration preference, 10 minute retention interval","[2]; aging rats (12-14 months old), diet supplemented with 6 mg/kg MgCl2 from 8 months of age, single training, FIG. 8, P<0.0001",preferentially explored the novel object to the same extent as young rats
same,novel object discrimination after 24 hours,"[2]; aging rats, 6 mg/kg MgCl2, single training",lose there ability to distinguish novel versus familiar objects
same,"preference for the novel object, 24-hour retention interval after spaced training","[2]; aging rats, 6 mg/kg MgCl2, two training sessions, FIG. 9",retained a high level of preference
same,"learning in T-maze non-matching-to-place task, 15 sec delay","[3]; 6 mg/kg MgCl2, FIG. 10 left panel",performed significantly better from their first trials
same,spatial working memory at 2 and 5 min delays,"[3]; 6 mg/kg MgCl2, FIG. 10 right panel",significantly enhanced the performance of the aging rats
[O]=[Mg] [magnesium oxide],"magnesium bioavailability, or absorption rate in the human body",[4],very low
same,cognitive function,[5],some sign of improvement
same,metabolic control,[6],only minor improvement
CC12CC3CC(C)(C1)CC(N)(C3)C2 [memantine],"reduction of the effects of AD on learning capacity, comparison of anti-AD drugs",[7],better at reducing the effects of AD on learning capacity than aricept
magnesium gluconate,magnesium absorption rate at higher dosage,[1],suitably close to those associated with the lower dosage compositions
